Measured values as given in ChEMBL document CHEMBL4130492, “Tying up tranylcypromine: Novel selective histone lysine specific demethylase 1 (LSD1) inhibitors” (Eur J Med Chem, 2017).
pIC50: −log10 of the molar value.

Tests used:
[1] = test system: MV4-11; assay: Antiproliferative activity against human MV4-11 cells after 3 days by MTS assay; assay type: functional, cell-based; conditions: MV4-11, 72 h
[2] = test system: MV4-11; assay: Antiproliferative activity against human MV4-11 cells after 10 days by MTS assay; assay type: functional, cell-based; conditions: MV4-11, 240 h
[3] = test system: RPMI-8226; assay: Antiproliferative activity against human RPMI8226 cells after 3 days by MTS assay; assay type: functional, cell-based; conditions: RPMI-8226, 72 h
[4] = test system: RPMI-8226; assay: Antiproliferative activity against human RPMI8226 cells after 10 days by MTS assay; assay type: functional, cell-based; conditions: RPMI-8226, 240 h
[5] = molecular target: T1, Lysine-specific histone demethylase 2 (Homo sapiens, UniProt Q8NB78)
T1 sequence (Q8NB78 whole entry): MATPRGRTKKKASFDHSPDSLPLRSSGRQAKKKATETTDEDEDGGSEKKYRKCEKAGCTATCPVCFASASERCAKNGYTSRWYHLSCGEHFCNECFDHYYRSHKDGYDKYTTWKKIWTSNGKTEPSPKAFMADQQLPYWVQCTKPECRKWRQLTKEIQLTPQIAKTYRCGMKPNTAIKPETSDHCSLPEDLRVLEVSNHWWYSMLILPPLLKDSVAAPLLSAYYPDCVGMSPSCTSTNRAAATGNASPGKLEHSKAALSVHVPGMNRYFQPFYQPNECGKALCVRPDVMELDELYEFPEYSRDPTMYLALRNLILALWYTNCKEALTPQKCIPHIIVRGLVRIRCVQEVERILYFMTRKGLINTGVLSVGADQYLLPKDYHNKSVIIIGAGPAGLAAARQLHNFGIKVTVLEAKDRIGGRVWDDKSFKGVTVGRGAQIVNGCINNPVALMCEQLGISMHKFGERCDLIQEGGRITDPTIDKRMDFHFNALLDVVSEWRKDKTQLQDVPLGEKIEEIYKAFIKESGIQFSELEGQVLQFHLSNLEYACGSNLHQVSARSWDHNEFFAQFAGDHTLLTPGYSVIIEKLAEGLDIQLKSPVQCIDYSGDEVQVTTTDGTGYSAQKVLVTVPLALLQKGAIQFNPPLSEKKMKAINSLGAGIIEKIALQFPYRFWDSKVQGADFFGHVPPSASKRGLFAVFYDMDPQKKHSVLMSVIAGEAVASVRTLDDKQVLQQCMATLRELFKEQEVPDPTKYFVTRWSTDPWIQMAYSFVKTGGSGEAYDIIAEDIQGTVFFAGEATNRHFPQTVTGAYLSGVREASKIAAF
Description: Inhibition of human full length LSD2 using biotin-labeled H3K4me2 (1 to 24 residues) as substrate after 1 hr by TR-FRET assay

[6] = molecular target: T2, Amine oxidase [flavin-containing] A (Homo sapiens, UniProt P21397); assay: biochemical
T2 sequence (P21397 whole entry): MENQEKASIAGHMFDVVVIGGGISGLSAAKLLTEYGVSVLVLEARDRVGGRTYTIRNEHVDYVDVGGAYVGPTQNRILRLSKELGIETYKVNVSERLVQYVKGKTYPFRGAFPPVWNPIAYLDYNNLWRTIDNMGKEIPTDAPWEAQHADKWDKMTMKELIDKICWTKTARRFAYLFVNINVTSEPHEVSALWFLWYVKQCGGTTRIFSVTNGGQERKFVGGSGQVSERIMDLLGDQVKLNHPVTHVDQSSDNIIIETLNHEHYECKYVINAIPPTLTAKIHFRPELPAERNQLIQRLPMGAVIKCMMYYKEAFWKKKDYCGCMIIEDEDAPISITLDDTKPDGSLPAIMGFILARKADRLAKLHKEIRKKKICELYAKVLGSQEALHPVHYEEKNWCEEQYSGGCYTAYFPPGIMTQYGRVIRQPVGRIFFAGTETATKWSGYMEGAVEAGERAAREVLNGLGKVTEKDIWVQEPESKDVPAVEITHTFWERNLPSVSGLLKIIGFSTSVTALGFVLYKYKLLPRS
Description: Inhibition of human recombinant MAO-A expressed in baculovirus infected insect cells by luminescence assay

[7] = molecular target: T3, Amine oxidase [flavin-containing] B (Homo sapiens, UniProt P27338); assay: biochemical
T3 sequence (P27338 whole entry): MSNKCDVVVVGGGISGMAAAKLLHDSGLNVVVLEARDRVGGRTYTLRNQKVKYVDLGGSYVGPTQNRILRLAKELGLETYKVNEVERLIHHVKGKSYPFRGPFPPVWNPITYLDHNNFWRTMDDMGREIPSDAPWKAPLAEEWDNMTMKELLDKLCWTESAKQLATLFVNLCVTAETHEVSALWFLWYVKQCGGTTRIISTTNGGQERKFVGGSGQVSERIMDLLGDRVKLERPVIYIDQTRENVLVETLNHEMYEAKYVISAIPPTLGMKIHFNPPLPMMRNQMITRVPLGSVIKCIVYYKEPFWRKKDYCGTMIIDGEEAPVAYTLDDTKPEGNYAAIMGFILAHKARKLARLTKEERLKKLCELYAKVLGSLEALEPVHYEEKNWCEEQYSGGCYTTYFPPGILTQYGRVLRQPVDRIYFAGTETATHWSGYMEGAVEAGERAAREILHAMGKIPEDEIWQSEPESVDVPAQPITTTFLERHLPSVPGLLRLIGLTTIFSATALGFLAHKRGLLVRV
Description: Inhibition of human recombinant MAO-B expressed in baculovirus infected insect cells by luminescence assay

Row | Compound | pIC50 [1] | pIC50 [2] | pIC50 [3] | pIC50 [4] | pIC50 [5] | pIC50 [6] | pIC50 [7]
1 | NC1CCC(N[C@@H]2C[C@H]2c2ccccc2)CC1 (stereo partly specified) | < 4.70 | 7.52 | < 4.70 | < 4.70 | < 4.00 | < 4.00 | 
2 | N[C@H]1CC[C@@H](N[C@H]2[C@H]3Cc4ccccc4[C@H]32)CC1 (racemic) | < 4.70 | 6.70 | < 4.70 | < 4.70 |  | < 4.00 | < 4.00
3 | N[C@H]1[C@H]2Cc3ccccc3[C@@H]12 (relative stereo) |  |  |  |  |  | < 4.00 | < 4.00
4 | N[C@H]1CC[C@H](N[C@@H]2[C@H]3Cc4ccccc4[C@H]32)CC1 (racemic) |  |  |  |  |  | < 4.00 | < 4.00
5 | COc1ncccc1CN[C@H]1[C@H]2Cc3ccccc3[C@H]21 (racemic) |  |  |  |  |  | 4.10 | < 4.00
6 | N[C@H]1CC[C@@H](N[C@@H]2[C@H]3Cc4ccccc4[C@H]32)CC1 (racemic) |  |  |  |  |  | < 4.00 | < 4.00
7 | N[C@@H]1[C@H]2Cc3ccccc3[C@@H]12 (relative stereo) |  |  |  |  |  | < 4.00 | < 4.00
8 | N[C@H]1CC[C@H](N[C@H]2[C@H]3Cc4ccccc4[C@H]32)CC1 (racemic) | < 4.70 | 6.15 | < 4.70 | < 4.70 |  | < 4.00 | < 4.00
9 | COc1ncccc1CN[C@@H]1[C@H]2Cc3ccccc3[C@H]21 (racemic) |  |  |  |  | < 4.00 | < 4.00 | < 4.00
